{
  "source": "patent US20130202685A1",
  "about": "“Use of a histamine H4 antagonist for the treatment of post-operative adhesions” (Janssen Pharmaceutica NV, priority 2008, published 2013)",
  "key": {"[1]": {"system": "adhesion formation at the site of sidewall injury", "assay": "Peritoneal sidewall adhesion model (rabbit)", "assay_type": "in vivo", "settings": "individual animals"}, "[2]": {"system": "adhesion formation at the site of sidewall injury", "assay": "Peritoneal sidewall adhesion model (rabbit)", "assay_type": "in vivo", "settings": "for Adhesion Area / Adhesion Tenacity: individual animals; for Adhesion Area Mean/SEM: group mean; for Adhesion Tenacity Mean/SEM (mean of the rank of the tenacity): group mean rank; for Adhesion Tenacity: score 0-3", "procedure": "Multiple studies to confirm the efficacy of histamine H4 receptor antagonists in the reduction or inhibition of adhesion formation after peritoneal surgery were performed using a sidewall adhesion model.\nAnimals: Twenty eight female New Zealand White rabbits, 2.4-2.7 kg, were purchased from Irish Farms and quarantined for at least 2 days prior to use. The rabbits were housed on a 12:12 light:dark cycle with food and water available ad libitum.\nRabbits were anesthetized with a mixture of 55 mg/kg ketamine hydrochloride and 5 mg/kg Rompum intramuscularly. Following preparation for sterile surgery, a midline laparotomy was performed. A polyethylene catheter (Clay Adams polyethylene tubing PE-60 ID 0.76 mm (0.030″) OD 1.22 mm (0.048″)) was introduced into the peritoneal cavity and sutured to the sidewall with 5-0 Ethilon. For local administration, an Alzet miniosmotic pump (10 μl/hour, 2 ml, Model 2ML1 from Durect), filled with one dosage level or placebo (water for injection) control at 10 μl/hour over 7 days starting with the day of surgery was placed in the subcutaneous space. The catheter was then attached to the pump and the midline muscle incision was closed around the catheter. The cecum and bowel were exteriorized and digital pressure was exerted to create subserosal hemorrhages over all surfaces. The damaged intestine was then lightly abraded with 4″×4″ 4-ply sterile gauze until punctate bleeding was observed. The cecum and bowel was then returned to their normal anatomic position. A 5×3 cm area of peritoneum and transversus abdominous muscle was removed on the right lateral abdominal wall. The incision was closed in two layers with 3-0 Vicryl (Ethicon, Somerville, N.J.). The pump was replaced at day 7.\nTwenty-one days after surgery, rabbits were sacrificed by intravenous EuthaSol. Adhesion formation at the site of sidewall injury was assessed by examination to determine the percentage of the area of the sidewall injury involved in adhesions. The percentage of a surface of the sidewall involved in adhesions to various organs are given in the tables below to quantify the overall adhesion score. In addition, tenacity of the adhesion formed was scored using a system as follows:\n1=mild, easily dissectible adhesions;\n3=dense adhesions; non-dissectible, tears when removed.\nThe difference in adhesion formation between the control and treated groups were analyzed by Student's t-test. A reduction in the area and the tenacity of the adhesions would be considered beneficial and efficacious.\nGeneral observations were conducted on each animal (appearance, behavior, clinical signs, symptoms, moribundity, mortality, and physical examinations) prior to assignment to study and on the day of necropsy. On the day of necropsy data and observations were recorded with particular attention to inflammation, granulomatous material and adhesion formation at the treatment site. All biocompatibility results were recorded, and the level of reaction was noted (none, mild, moderate, severe)."}, "[3]": {"settings": "5 mg/ml, non-systemic by Alzet pump, 21 days after surgery"}, "[4]": {"settings": "5 mg/ml, non-systemic by pump, result in words"}},
  "note": "Several values for one entry are separate records, joined by “and”; a condition that tells them apart may be missing. Identical values can stand only once.",
  "data": [
    {"smiles": "Cc1cc(C)c2nc(-c3cnc(NCCCC4CCN(C)CC4)nc3C)[nH]c2c1", "note": "[Test Compound, [5-(4,6-dimethyl-1H-benzoimidazol-2-yl)-4-methyl-pyrimidin-2-yl]-[3-(1-methyl-piperidin-4-yl)-propyl]-amine]", "values": [
      {"measurement": "Adhesion Area", "setting": "[1]; 30 mg/kg orally (gavage on day of surgery and four additional days), 21 days after surgery", "result": "100 percentage (3×) and 40 percentage and 70 percentage and 80 percentage and 60 percentage"},
      {"measurement": "Adhesion Tenacity", "setting": "[1]; 30 mg/kg orally, score 0-3", "result": "3 (2×) and 1 (3×) and 2 (2×)"},
      {"measurement": "Adhesion Area", "setting": "[2]; 0.1 mg/ml, non-systemic (pump), 21 days after surgery", "result": "80 percentage (2×) and 100 percentage (3×) and 70 percentage (2×)"},
      {"measurement": "Adhesion Area Mean/SEM", "setting": "[2]; 0.1 mg/ml, non-systemic (pump)", "result": "85.7 ± 5.28", "unit": "percentage"},
      {"measurement": "Adhesion Tenacity Mean/SEM (mean of the rank of the tenacity)", "setting": "[2]; 0.1 mg/ml, non-systemic (pump)", "result": "20.1 ± 3.37"},
      {"measurement": "Adhesion Tenacity", "setting": "[2]; 0.1 mg/ml, non-systemic (pump)", "result": "2 (5×) and 3 and 1"},
      {"measurement": "Adhesion Area", "setting": "[2]; 1 mg/ml, non-systemic (pump), 21 days after surgery", "result": "80 percentage (3×) and 70 percentage and 60 percentage (3×)"},
      {"measurement": "Adhesion Area Mean/SEM", "setting": "[2]; 1 mg/ml, non-systemic (pump)", "result": "70 ± 10", "unit": "percentage"},
      {"measurement": "Adhesion Tenacity Mean/SEM (mean of the rank of the tenacity)", "setting": "[2]; 1 mg/ml, non-systemic (pump)", "result": "13.9 ± 3.38"},
      {"measurement": "Adhesion Tenacity", "setting": "[2]; 1 mg/ml, non-systemic (pump)", "result": "2 (4×) and 1 (3×)"},
      {"measurement": "Adhesion Area", "setting": "[2]; 10 mg/ml, non-systemic (pump), 21 days after surgery", "result": "100 percentage (2×) and 60 percentage (2×) and 80 percentage (2×) and 90 percentage"},
      {"measurement": "Adhesion Area Mean/SEM", "setting": "[2]; 10 mg/ml, non-systemic (pump)", "result": "81.4 ± 6.34", "unit": "percentage"},
      {"measurement": "Adhesion Tenacity Mean/SEM (mean of the rank of the tenacity)", "setting": "[2]; 10 mg/ml, non-systemic (pump)", "result": "18.3 ± 1.43"},
      {"measurement": "Adhesion Tenacity", "setting": "[2]; 10 mg/ml, non-systemic (pump)", "result": "2 (6×) and 1"},
      {"measurement": "Adhesion Area Mean/SEM", "setting": "[2]; 30 mg/kg orally", "result": "78.6 ± 8.85", "unit": "percentage"},
      {"measurement": "Adhesion Tenacity Mean/SEM (mean of the rank of the tenacity)", "setting": "[2]; 30 mg/kg orally", "result": "17.6 ± 5.27"},
      {"measurement": "tenacity of adhesions", "setting": "[2]; mid-dose (1 mg/ml) administered by pump, not statistically significant, result in words", "result": "appeared reduced"},
      {"measurement": "area of adhesion reduction", "setting": "[2]; mid-dose (1 mg/ml) administered by pump, result in words", "result": "statistically significant"}
    ]},
    {"smiles": "CN1CCN(C(=O)c2c[nH]c3ccc(Cl)cc23)CC1", "note": "[(5-Chloro-1H-indol-3-yl)-(4-methyl-piperazin-1-yl)-methanone]", "values": [
      {"measurement": "Adhesion Area", "setting": "[2]; 5 mg/ml, non-systemic by Alzet pump 10 μl/hour, 21 days after surgery", "result": "60 percentage and 70 percentage and 40 percentage and 80 percentage and 50 percentage and 100 percentage (2×)"},
      {"measurement": "Adhesion Area Mean/SEM", "setting": "[2]; [3]", "result": "71.4 ± 8.8", "unit": "percentage"},
      {"measurement": "Adhesion Tenacity Mean/SEM (mean of the rank of the tenacity)", "setting": "[2]; [3]", "result": "6.93 ± 1.4"},
      {"measurement": "Adhesion Tenacity", "setting": "[2]; [3]", "result": "1 (6×) and 2"},
      {"measurement": "clinical signs", "setting": "[2]; 5 mg/ml, non-systemic by pump, general observations", "result": "No other rabbits showed any clinical signs"},
      {"measurement": "inflammatory or granulomatous reactions in the peritoneal cavity", "setting": "[2]; 5 mg/ml, non-systemic by pump, necropsy observation", "result": "no inflammatory or granulomatous reactions"},
      {"measurement": "area of adhesions versus control", "setting": "[2]; [4]", "result": "significantly reduced"},
      {"measurement": "tenacity of adhesions versus control", "setting": "[2]; [4]", "result": "significantly reduced"}
    ]}
  ]
}
